13 molecules from US20240101573A1, “MACROCYCLIC K-RAS G12C INHIBITOR, PREPARATION METHOD THEREFOR AND USE THEREOF” (Abbisko Therapeutics Co., Ltd., priority 2020, published 2024) can be followed below.

In general, IC50 refers to the midpoint of a concentration-inhibition curve.

The test system of one experiment is MIA PaCa-2. Kind of experiment: Anti-proliferation 2D CTG test (MIA PaCa-2). Format: cell-based. As to conditions: MIAPACA-2 cells, 500 cells/well, 5 days incubation with compound, CTG readout. In a few lines: (§1)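 H358 (1500 cells/well) and MIA PaCa-2 (500 cells/well) seeded overnight, then treated 5 days at 37 °C with 10-point 1:3 dilutions, top final […], 0.5% DMSO. Viability by CellTiter-Glo luminescence; IC50 from four-parameter fit normalized to plate controls.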

For a further experiment, the system named is H358. Kind of experiment: Anti-proliferation 2D CTG test (H358). Format: cell-based. The note with it: H358 cells, 1500 cells/well, 5 days incubation with compound, CTG readout. In a few lines:
as §1

Take `C=CC(=O)N1CCN(c2nc(=O)n3c4nc(c(F)cc24)-c2c(F)cccc2OCC(OCC)C(O)c2ccnc(C(C)C)c2-3)[C@@H](C)C1` (stereo partly drawn) [Example 29, 2^4-((S)-4-acryloyl-2-methylpiperazin-1-yl)-6-ethoxy-2^6,3^6-difluoro-7-hydroxy-1^2-isopropyl-2^1,2^2-dihydro-4-oxa-2(1,7)-pyrido[2,3-d]pyrimidina-1(3,4)-pyridina-3(1,2)-benzocycloheptane-2^2-one]: the IC50 in the experiment with MIA PaCa-2 and with H358 was 6 nM each time.

`C=CC(=O)N1CCN(c2nc(=O)n3c4nc(c(F)cc24)-c2c(F)cccc2OCC(O)C(OCC(F)F)c2ccnc(C(C)C)c2-3)[C@@H](C)C1` (stereo partly drawn) [Example 32, 2^4-((S)-4-acryloyl-2-methylpiperazin-1-yl)-7-(2,2-difluoroethoxy)-2^6,3^6-difluoro-6-hydroxy-1^2-isopropyl-2^1,2^2-dihydro-4-oxa-2(1,7)-pyrido[2,3-d]pyrimidina-1(3,4)-pyridina-3(1,2)-benzocycloheptane-2^2-one]: the figures for the IC50 in the experiment on MIA PaCa-2 and with H358 were 69 nM and 41 nM, respectively.

`C=CC(=O)N1CCN(c2nc(=O)n3c4nc(c(F)cc24)-c2c(F)cccc2OCC(OCC(F)F)C(O)c2ccnc(C(C)C)c2-3)[C@@H](C)C1` (stereo partly drawn) [Example 33, 2^4-((S)-4-acryloyl-2-methylpiperazin-1-yl)-6-(2,2-difluoroethoxy)-2^6,3^6-difluoro-7-hydroxy-1^2-isopropyl-2^1,2^2-dihydro-4-oxa-2(1,7)-pyrido[2,3-d]pyrimidina-1(3,4)-pyridina-3(1,2)-benzocycloheptane-2^2-one]: the values for the half-inhibitory concentration (IC50) in the experiment with MIA PaCa-2 and in the experiment on H358 were 154 nM and 42 nM, respectively.

Turning to `C=CC(=O)N1CCN(c2nc(=O)n3c4nc(c(F)cc24)-c2c(F)cccc2OCC(OC(C)C)C(O)c2ccnc(C(C)C)c2-3)[C@@H](C)C1` (stereo partly drawn) [Example 34, 2^4-((S)-4-acryloyl-2-methylpiperazin-1-yl)-6-isopropoxy-2^6,3^6-difluoro-7-hydroxy-1^2-isopropyl-2^1,2^2-dihydro-4-oxa-2(1,7)-pyrido[2,3-d]pyrimidina-1(3,4)-pyridina-3(1,2)-benzocycloheptane-2^2-one], the IC50 in the experiment with MIA PaCa-2 is 7 nM; with H358 it was 4 nM.

On to `C=CC(=O)N1C[C@H](C)N(c2nc(=O)n3c4nc(c(F)cc24)-c2c(F)cccc2OCC(O)C(OCC)c2ccnc(C(C)C)c2-3)C[C@H]1C` (stereo partly drawn) [Example 35, 2^4-((2S,5R)-4-acryloyl-2,5-dimethylpiperazin-1-yl)-7-ethoxy-2^6,3^6-difluoro-6-hydroxy-1^2-isopropyl-2^1,2^2-dihydro-4-oxa-2(1,7)-pyrido[2,3-d]pyrimidina-1(3,4)-pyridina-3(1,2)-benzocycloheptane-2^2-one], for which the IC50 is 4 nM with MIA PaCa-2 and 11 nM with H358.

For the molecule `C=CC(=O)N1C[C@H](C)N(c2nc(=O)n3c4nc(c(F)cc24)-c2c(F)cccc2OCC(OCC)C(O)c2ccnc(C(C)C)c2-3)C[C@H]1C` (stereo partly drawn) [Example 36, (R)-2^4-((2S,5R)-4-acryloyl-2,5-dimethylpiperazin-1-yl)-6-ethoxy-2^6,3^6-difluoro-7-hydroxy-1^2-isopropyl-2^1,2^2-dihydro-4-oxa-2(1,7)-pyrido[2,3-d]pyrimidina-1(3,4)-pyridina-3(1,2)-benzocycloheptane-2^2-one], the IC50 in the experiment on MIA PaCa-2 (Homo sapiens, MIA PaCa-2, 120 h) worked out at 1 nM; with H358 (Homo sapiens, NCI-H358, 120 h), 1 nM.

Turning to `C=CC(=O)N1CCN(c2nc(=O)n3c4nc(c(F)cc24)-c2c(F)cccc2OCC(O)C(OCCF)c2ccnc(C(C)C)c2-3)[C@@H](C)C1` (stereo partly drawn) [Example 37, (R)-2^4-((S)-4-acryloyl-2-methylpiperazin-1-yl)-2^6,3^6-difluoro-7-(2-fluoroethoxy)-6-hydroxy-1^2-isopropyl-2^1,2^2-dihydro-4-oxa-2(1,7)-pyrido[2,3-d]pyrimidina-1(3,4)-pyridina-3(1,2)-benzocycloheptane-2^2-one], the results for the half-inhibitory concentration (IC50) with MIA PaCa-2 and in the experiment on H358 were 5 nM and 14 nM, respectively.

For `C=CC(=O)N1CCN(c2nc(=O)n3c4nc(c(F)cc24)-c2c(F)cccc2OCC(OCCF)C(O)c2ccnc(C(C)C)c2-3)[C@@H](C)C1` (stereo partly drawn) [Example 39, (R)-2^4-((S)-4-acryloyl-2-methylpiperazin-1-yl)-2^6,3^6-difluoro-6-(2-fluoroethoxy)-7-hydroxy-1^2-isopropyl-2^1,2^2-dihydro-4-oxa-2(1,7)-pyrido[2,3-d]pyrimidina-1(3,4)-pyridina-3(1,2)-benzocycloheptane-2^2-one], the half-inhibitory concentration (IC50) in the experiment with MIA PaCa-2 was found to be 2 nM; with H358 it was 4 nM.

Take `C=CC(=O)N1CCN(c2nc(=O)n3c4nc(c(F)cc24)-c2c(F)cccc2OCC(O)C(OC)c2ccnc(C(C)C)c2-3)[C@@H](C)C1` (stereo partly drawn) [Example 41, (R)-2^4-((S)-4-acryloyl-2-methylpiperazin-1-yl)-7-methoxy-2^6,3^6-difluoro-6-hydroxy-1^2-isopropyl-2^1,2^2-dihydro-4-oxa-2(1,7)-pyrido[2,3-d]pyrimidina-1(3,4)-pyridina-3(1,2)-benzocycloheptane-2^2-one]: the IC50 in the experiment with MIA PaCa-2 was found to be 2 nM; in the experiment with H358, 3 nM.

`C=CC(=O)N1CCN(c2nc(=O)n3c4nc(c(F)cc24)-c2c(F)cccc2OCC(O)C(OC)c2ccnc(C(C)C)c2-3)[C@@H](C)C1` (stereo partly drawn) [Example 42, (S)-2^4-((S)-4-acryloyl-2-methylpiperazin-1-yl)-7-methoxy-2^6,3^6-difluoro-6-hydroxy-1^2-isopropyl-2^1,2^2-dihydro-4-oxa-2(1,7)-pyrido[2,3-d]pyrimidina-1(3,4)-pyridina-3(1,2)-benzocycloheptane-2^2-one]: the IC50 is 669 nM in the experiment on MIA PaCa-2 and 977 nM in the experiment on H358.

As for `C=CC(=O)N1CCN(c2nc(=O)n3c4nc(c(F)cc24)-c2c(F)cccc2OCC(O)C(OCC)c2ccnc(C(C)C)c2-3)[C@@H](C)C1` (stereo partly drawn) [Example 43, (R)-2^4-((S)-4-acryloyl-2-methylpiperazin-1-yl)-7-ethoxy-2^6,3^6-difluoro-6-hydroxy-1^2-isopropyl-2^1,2^2-dihydro-4-oxa-2(1,7)-pyrido[2,3-d]pyrimidina-1(3,4)-pyridina-3(1,2)-benzocycloheptane-2^2-one], the IC50 was found to be 6 nM with MIA PaCa-2 and 5 nM in the experiment on H358.

As to `C=CC(=O)N1CCN(c2nc(=O)n3c4nc(c(F)cc24)-c2c(F)cccc2OCC(O)C(OCC)c2ccnc(C(C)C)c2-3)[C@@H](C)C1` (stereo partly drawn) [Example 44, (S)-2^4-((S)-4-acryloyl-2-methylpiperazin-1-yl)-7-ethoxy-2^6,3^6-difluoro-6-hydroxy-1^2-isopropyl-2^1,2^2-dihydro-4-oxa-2(1,7)-pyrido[2,3-d]pyrimidina-1(3,4)-pyridina-3(1,2)-benzocycloheptane-2^2-one], the IC50 in the experiment on MIA PaCa-2 was determined as 125 nM; in the experiment on H358 it was 250 nM.

Take `C=CC(=O)N1CCN(c2nc(=O)n3c4nc(c(F)cc24)-c2c(F)cccc2OCC(OCC)C(O)c2ccnc(C(C)C)c2-3)[C@@H](C)C1` (stereo partly drawn) [Example 45, (R)-2^4-((S)-4-acryloyl-2-methylpiperazin-1-yl)-6-ethoxy-2^6,3^6-difluoro-7-hydroxy-1^2-isopropyl-2^1,2^2-dihydro-4-oxa-2(1,7)-pyrido[2,3-d]pyrimidina-1(3,4)-pyridina-3(1,2)-benzocycloheptane-2^2-one]: the IC50 with MIA PaCa-2 and with H358 was 2 nM in each case.
